In paper PMC11024869, “The activity of antimicrobial peptoids against multidrug-resistant ocular pathogens” (Contact lens & anterior eye : the journal of the British …, 2024):
Converted amounts (≈) assume the structure as drawn. Non-standard residues stand in square brackets, D forms with d. Residues, ends and D or L forms follow the SMILES beside them. Nspe(4-Br) = C[C@H](NCC(=O)O)c1ccc(Br)cc1; Nlys = NCCCCNCC(=O)O

Columns and labels:
Assay type in all cases: cell-based
[1] = tested on: Pseudomonas aeruginosa PAO1; conditions: PAO1, 24 h
Text: (§3) The S. pneumoniae strains used were SP04, SP06 and SP07 [46] and Streptococcus gallolyticus SV06 (all isolated from eyes of contact lens wearers during adverse events); P. aeruginosa PAO1 (which was originally isolated from a wound, and is an invasive strain containing the gene exoS) as well as isolates from microbial keratitis, PA 235 (invasive strain containing exoS), PA216 (a cytotoxic strain containing exoU), PA219 (cytotoxic strain containing exoU), PA 233 (cytotoxic strain containing exoU), with various susceptibilities to antibiotics were also used [14]. C. albicans ATCC 10231, a yeast, isolated from case of a human bronchomycosis, was also evaluated.
(§4) The peptoids’ minimum inhibitory and bactericidal concentrations (MIC and MBC) were determined using micro broth dilution methods as previously described with slight modifications, [26, 39, 49, 50], and without using acetic acid and bovine serum albumin [39]. Briefly, bacteria or yeast were suspended in Muller Hinton broth (MHB, Oxoid, Thermo Fisher Scientific, Thebarton, SA, Australia) at 0.1 OD660nm, which was equivalent to 1x10^8 colony forming units (CFU) mL^−1. This suspension was further diluted to achieve 5x10^6 CFU mL^−1. The peptoids were diluted in MHB from 250 to 0.24 μg mL^−1 in 96-well polystyrene microplates (COSTAR, Corning Incorporated, New York, NY, USA) [39]. […] This was followed by addition of 100 μL of each microbial suspensions. Wells with only bacteria or the yeast were treated as a negative control, and wells with only MHB medium were treated as a blank. The plates were incubated at 37 °C with shaking at 120 rpm for 24 h. After incubation, the media in each well was serially diluted in phosphate buffered solution and then inoculated onto tryptone soya agar (Oxoid) plates for bacteria, or Sabouraud’s dextrose agar for the yeast, and incubated at 37 °C for 18 hrs. Post incubation, the number of CFUs on the agar plates was counted.

[2] = tested on: horse erythrocytes; test: In vitro assay for hemolysis, horse blood
Procedure: (§1) Hemolysis caused by the peptoids was measured using 18 to 20 mL of a horse or human blood collected in EDTA-coated tubes which has been centrifuged at 500×g for 5 min. The supernatant was discarded and the pellet containing the cells were resuspended in PBS to a final volume of 20 mL. This step was repeated five times. After the final wash, the pellet was resuspended in PBS at the ratio of 1:10 (1 mL red blood cell: 9 mL PBS) to yield a final red blood cell (RBC) concentration of approximately 5 × 10^8 cells mL^−1. The concentration of RBCs was confirmed using a hemocytometer. The peptoids (stock concentration 2 mM) were diluted sequentially (two-fold dilutions) in PBS to final concentrations of […]. All the dilutions were subsequently mixed with the RBC suspension at the ratio of 1:1. MilliQ water was used as a positive control and PBS was used as a negative control in this assay. All samples were incubated at 37 °C for 3 h. Following incubation, the tubes were centrifuged at 500 x g for five mins, the supernatants were collected, transferred to wells in a 96 well plate and their optical density was measured at 540 nm. The percentage of hemolysis was calculated by dividing the absorbance of the test sample by the absorbance of the positive control, and multiplying by 100. Data are presented as the hemolysis caused by each dilution of peptoid, and as the concentration of peptoid that caused 10 % or 50 % lysis of red blood cells.
(§2) The geometric mean is the nth root of the multiplied numbers, where n is the total number of data values. A similar formula was used to calculate the selectivity ratio, but by using the concentration of peptoid that caused 10 % hemolysis.

[3] = tested on: Pseudomonas aeruginosa PA233; conditions: PA233, 24 h
Text: All S. aureus strains used were isolated from cases of microbial keratitis (Table 1) with various susceptibilities to antibiotics. The S. pneumoniae strains used were SP04, SP06 and SP07 [46] and Streptococcus gallolyticus SV06 (all isolated from eyes of contact lens wearers during adverse events); P. aeruginosa PAO1 (which was originally isolated from a wound, and is an invasive strain containing the gene exoS) as well as isolates from microbial keratitis, PA 235 (invasive strain containing exoS), PA216 (a cytotoxic strain containing exoU), PA219 (cytotoxic strain containing exoU), PA 233 (cytotoxic strain containing exoU), with various susceptibilities to antibiotics were also used. C. albicans ATCC 10231, a yeast, isolated from case of a human bronchomycosis, was also evaluated.
The peptoids’ minimum inhibitory and bactericidal concentrations (MIC and MBC) were determined using micro broth dilution methods as previously described with slight modifications, [26, 39, 49, 50], and without using acetic acid and bovine serum albumin [39]. Briefly, bacteria or yeast were suspended in Muller Hinton broth (MHB, Oxoid, Thermo Fisher Scientific, Thebarton, SA, Australia) at 0.1 OD660nm, which was equivalent to 1x10^8 colony forming units (CFU) mL^−1. This suspension was further diluted to achieve 5x10^6 CFU mL^−1. The peptoids were diluted in MHB from 250 to 0.24 μg mL^−1 in 96-well polystyrene microplates (COSTAR, Corning Incorporated, New York, NY, USA). This range was selected to cover the range of MIC values previously reported for ESKAPE pathogens. This was followed by addition of 100 μL of each microbial suspensions. Wells with only bacteria or the yeast were treated as a negative control, and wells with only MHB medium were treated as a blank. The plates were incubated at 37 °C with shaking at 120 rpm for 24 h. After incubation, the media in each well was serially diluted in phosphate buffered solution and then inoculated onto tryptone soya agar (Oxoid) plates for bacteria, or Sabouraud’s dextrose agar for the yeast, and incubated at 37 °C for 18 hrs. Post incubation, the number of CFUs on the agar plates was counted.

[4] = tested on: Staphylococcus aureus SA114; conditions: SA114, 24 h
Text: as §3, §4

[5] = tested on: Candida albicans ATCC 10231; test: MIC/MBC (fungicidal) micro broth dilution; conditions: ATCC 10231 (yeast), MHB, 24 h 37 °C
Text: as §3, §4

[6] = tested on: Pseudomonas aeruginosa PA219; conditions: PA219, 24 h
Text: as §3, §4

[7] = tested on: Staphylococcus aureus SA117; conditions: SA117, 24 h
Text: as §3, §4

[8] = tested on: human erythrocytes; test: In vitro assay for hemolysis, human blood
Procedure: as §1, §2

[9] = tested on: Streptococcus gallolyticus SG04; conditions: 24 h
Text: as §3, §4

[10] = tested on: Streptococcus pneumoniae SP07; conditions: SP07, 24 h
Text: as §3, §4

[11] = tested on: Pseudomonas aeruginosa PA216; conditions: PA216, 24 h
Text: as §3, §4

[12] = tested on: Staphylococcus aureus SA65; conditions: SA65, 24 h
Text: as §3, §4

[13] = tested on: viridans group streptococcus SV06; conditions: 24 h
Text: as §3, §4

[14] = tested on: Pseudomonas aeruginosa PA235; conditions: PA235, 24 h
Text: as §3, §4

[15] = tested on: Streptococcus pneumoniae SP04; conditions: SP04, 24 h
Text: as §3, §4

[16] = tested on: Staphylococcus aureus SA113; conditions: SA113, 24 h
Text: as §3, §4

[17] = tested on: Streptococcus pneumoniae SP06; conditions: SP06, 24 h
Text: as §3, §4

[18] = tested on: Staphylococcus aureus SA34; conditions: SA34, 24 h
Text: as §3, §4

Question: For `C[C@@H](c1ccc(Br)cc1)N(CC(=O)N(CCCCN)CC(=O)N(CC(=O)N(CC(=O)N(CCCCN)CC(N)=O)[C@@H](C)c1ccc(Br)cc1)[C@@H](C)c1ccc(Br)cc1)C(=O)CN(C(=O)CNCCCCN)[C@@H](C)c1ccc(Br)cc1` [TM14] (H-[Nlys][Nspe(4-Br)][Nspe(4-Br)][Nlys][Nspe(4-Br)][Nspe(4-Br)][Nlys]-NH2), which MBC [1] is on record?
Answer: 15 µg/mL (≈ 11 µM)

Question: And the MIC [1]?
Answer: 7.8 µg/mL (≈ 5.73 µM)

Question: And the “SR horse blood (ratio HC10 to geometric mean MIC)” value [2]?
Answer: 0.8

Question: What about the “Horse HC10” value ([2]; red cells of horse, 3 h) of the same compound?
Answer: 3 µM

Question: What about the “Horse HC50” value ([2]; red cells of horse, 3 h) of the same compound?
Answer: 45 µM

Question: What about the “TI horse blood (ratio HC50 to geometric mean MIC)” value ([2]; therapeutic index) of the same compound?
Answer: 11

Question: And the MBC [3]?
Answer: 31 µg/mL (≈ 22.8 µM)

Question: What about the MIC [3] of the same compound?
Answer: 15 µg/mL (≈ 11 µM)

Question: And the MBC [4]?
Answer: 1.9(1.4)/1.9(1.4) μg mL^−1

Question: What about the MIC [4] of the same compound?
Answer: 1.9(1.4)/1.9(1.4) μg mL^−1

Question: And the MIC ([5]; ≥90 % reduction in CFUs)?
Answer: 3.9(2.8)/3.9(2.8) μg mL^−1

Question: What about the “MBC (minimum fungicidal concentration)” value ([5]; ≥99.99 % reduction in CFUs) of the same compound?
Answer: 3.9(2.8)/3.9(2.8) μg mL^−1

Question: And the MBC [6]?
Answer: 15(11)/15(11) μg mL^−1

Question: What about the MIC [6] of the same compound?
Answer: 15(11)/15(11) μg mL^−1

Question: What about the MBC [7] of the same compound?
Answer: 3.9(2.9)/3.9(2.9) μg mL^−1

Question: And the MIC [7]?
Answer: 3.9(2.9)/3.9(2.9) μg mL^−1

Question: What about the “SR human blood (ratio HC10 to geometric mean MIC)” value [8] of the same compound?
Answer: 2

Question: What about the “Human HC10” value ([8]; red cells of human, 3 h) of the same compound?
Answer: 8 µM

Question: And the “Human HC50” value ([8]; red cells of human, 3 h)?
Answer: 90 µM

Question: And the “TI human blood (ratio HC50 to geometric mean MIC)” value ([8]; therapeutic index)?
Answer: 23

Question: And the MBC [9]?
Answer: 15(11)/15(11) μg mL^−1

Question: What about the MIC [9] of the same compound?
Answer: 15(11)/15(11) μg mL^−1

Question: And the MBC [10]?
Answer: 15(11)/15(11) μg mL^−1

Question: And the MIC [10]?
Answer: 15(11)/15(11) μg mL^−1

Question: What about the MBC [11] of the same compound?
Answer: 15 µg/mL (≈ 11 µM)

Question: And the MIC [11]?
Answer: 7.8 µg/mL (≈ 5.73 µM)

Question: And the MBC [12]?
Answer: 1.9(1.4)/1.9(1.4) μg mL^−1

Question: What about the MIC [12] of the same compound?
Answer: 1.9(1.4)/1.9(1.4) μg mL^−1

Question: What about the MBC [13] of the same compound?
Answer: 15(11)/15(11) μg mL^−1

Question: And the MIC [13]?
Answer: 15(11)/15(11) μg mL^−1

Question: And the MBC [14]?
Answer: 31 µg/mL (≈ 22.8 µM)

Question: What about the MIC [14] of the same compound?
Answer: 15 µg/mL (≈ 11 µM)

Question: What about the MBC [15] of the same compound?
Answer: 15(11)/15(15) μg mL^−1

Question: What about the MIC [15] of the same compound?
Answer: 15(11)/15(15) μg mL^−1

Question: And the MBC [16]?
Answer: 3.9 µg/mL (≈ 2.86 µM)

Question: What about the MIC [16] of the same compound?
Answer: 1.9 µg/mL (≈ 1.4 µM)

Question: And the MBC [17]?
Answer: 1.9(1.4)/1.9(1.4) μg mL^−1

Question: And the MIC [17]?
Answer: 1.9(1.4)/1.9(1.4) μg mL^−1

Question: And the MBC [18]?
Answer: 3.9(2.9)/3.9(2.9) μg mL^−1

Question: What about the MIC [18] of the same compound?
Answer: 3.9(2.9)/3.9(2.9) μg mL^−1
